Values of other authors in article PMC11472320, “Computationally Driven Discovery of a BCR-ABL1 Kinase Inhibitor with Activity in Multidrug-Resistant Chronic Myeloid Leukemia” (Journal of Medicinal Chemistry, 2024).
Where two headings read alike, the source gives them in different places.

Columns and labels:
[1] = pH 7.4; cited from earlier work
[2] = pH 7.4; cited from earlier work; remark: listed apart in the source
P-glycoprotein (P-gp) = conditions: Figure 1A; cited from earlier work
MDCKII-MDR1 cells = conditions: cited from earlier work
[3] = set-up: method as in earlier work; conditions: human plasma; cited from earlier work
[4] = cited from earlier work

In the case of COc1cc(Nc2c(C#N)cnc3cc(OCCCN4CCN(C)CC4)c(OC)cc23)c(Cl)cc1Cl [Bosutinib, bosutinib], the logD7.4 [1] is listed as 3.1, the “Aq. Sol.” value [2] is listed as 14 µM and the P-gp efflux status (P-glycoprotein (P-gp)) is listed as “P-gp Substrate”. For the same compound, the “Papp(a-b)” value (MDCKII-MDR1 cells; Table S7) was 0.38 10-6 cm/s, the “Recovery% (AP-BL)” value (MDCKII-MDR1 cells; Table S7) was 56.02% and the “Recovery% (BL-AP)” value (MDCKII-MDR1 cells; Table S7) was 65.52%. For the same compound, the “MDCKII-MDR1 Papp (a-b)” value (MDCKII-MDR1 cells; a-b) was 0.4 ×10⁻⁶ cm/s, the P-gp efflux status (MDCKII-MDR1 cells) was “P-gp Substrate” and the “%Recovery” value [3] was 94.01%. For the same compound, the “%Unbound” value [3] was 4.52%, the “Remaining Percentages” value ([4]; 0.5 min) was 100.00% and the “Remaining Percentages” value ([4]; 15 min) was 73.99%. For the same compound, the “Remaining Percentages” value ([4]; 60 min) was 53.95%, the “Remaining Percentages” value ([4]; 90 min) was 34.15% and the “Remaining Percentages” value ([4]; 120 min) was 20.73%.
